We go through 19 compounds from PubChem BioAssay (NCI).

Test systems include U251 CNS; UACC-257 melanoma; NCI-H23 lung; UO-31 renal; SN12C renal; IGROV1 ovarian; SR leukemia; T-47D breast; MCF7 breast; SNB-19 CNS.
Holding throughout (experiment): DTP human tumour cell line panel, 48 h

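These data come from cells grown in 96-well plates and exposed to compound for 48 hours at five concentrations. TGI marks complete inhibition of growth.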 A value given as a limit tells only on which side of the number the result lay.

Broadly, the TGI is the concentration giving total growth inhibition. Read a low TGI as more potent growth arrest. On to `Cc1ccc(Nc2nc3[nH]ccc3c(=O)[nH]2)cc1`, for which the TGI in the test with U251 CNS, in the test with UACC-257 melanoma, with NCI-H23 lung, in the test on UO-31 renal, in the test with SN12C renal and in the test on IGROV1 ovarian was greater than 100 µM each time. Besides, the TGI with SR leukemia, in the test on T-47D breast, in the test on MCF7 breast and in the test with SNB-19 CNS was greater than 100 µM in each case.
For `O=C(O)CCc1nc2c(n1-c1ccccc1)C(=O)c1ccccc1C2=O`, the TGI in the test with U251 CNS, in the test on UACC-257 melanoma, in the test with NCI-H23 lung, in the test with UO-31 renal, in the test with SN12C renal and in the test on IGROV1 ovarian was greater than 100 µM each time. For the same compound, the TGI in the test on SR leukemia, with T-47D breast, in the test with MCF7 breast and in the test on SNB-19 CNS was greater than 100 µM in each case.
Turning to `CC(=O)O[C@H]1CC(C)(C)C(=C=C/C(C)=C/C=C/C=C/C=C(C)/C=C2C=C(/C=C/[C@@]34O[C@]3(C)C[C@@H](O)CC4(C)C)C(=O)O/2)[C@](C)(O)C1`, the TGI was greater than 100 µM in the test on U251 CNS; 51.5 µM with UACC-257 melanoma; 18.1 µM in the test on NCI-H23 lung; 30.7 µM in the test with UO-31 renal; 35.8 µM in the test with SN12C renal; 7.72 µM with IGROV1 ovarian. For the same compound, the TGI was 74.8 µM with SR leukemia, greater than 100 µM in the test with T-47D breast, 20.7 µM with MCF7 breast and greater than 100 µM in the test with SNB-19 CNS.
`O=c1[nH]cc(NCCCl)c(=O)[nH]1`: the TGI in the test with U251 CNS, in the test on UACC-257 melanoma, with NCI-H23 lung, with UO-31 renal, in the test on SN12C renal and in the test with IGROV1 ovarian was greater than 100 µM in each case. In addition, the TGI with SR leukemia, in the test on T-47D breast, in the test on MCF7 breast and in the test with SNB-19 CNS was greater than 100 µM each time.
On to `CC(N=NNc1ccc(-c2nc3ccccc3[nH]2)cc1)C(=O)O` (stereo not given), for which the TGI in the test on U251 CNS was 60.8 µM; with UACC-257 melanoma it was greater than 100 µM; in the test on NCI-H23 lung, greater than 100 µM; with UO-31 renal, greater than 100 µM; in the test on SN12C renal, greater than 100 µM; with IGROV1 ovarian, greater than 100 µM. For the same compound, the TGI in the test with SR leukemia is greater than 100 µM; with T-47D breast it was greater than 100 µM; in the test on MCF7 breast it was 34.1 µM; in the test with SNB-19 CNS, greater than 100 µM.
Regarding `COc1cc(/C=C2\C(=O)N(c3cccc([N+](=O)[O-])c3)C(c3ccccc3)S2(=O)=O)cc(OC)c1OC` (stereo not given), the TGI with U251 CNS, in the test with UACC-257 melanoma, in the test on NCI-H23 lung, in the test on UO-31 renal, with SN12C renal and in the test with IGROV1 ovarian was greater than 100 µM in each case. The TGI with SR leukemia, with T-47D breast, in the test on MCF7 breast and in the test on SNB-19 CNS was greater than 100 µM each time.
Regarding `C/C(CC(O)(C(F)(F)F)C(F)(F)F)=N\NC(N)=O`, the TGI with U251 CNS, with UACC-257 melanoma, with NCI-H23 lung, in the test with UO-31 renal, in the test with SN12C renal and with IGROV1 ovarian was greater than 10 µM throughout. Moreover, the TGI with SR leukemia, with T-47D breast, in the test on MCF7 breast and in the test on SNB-19 CNS was greater than 10 µM throughout.
With `CC(C)(C)c1ccc(OCCOc2ccc(C(C)(C)C)cc2N)c(N)c1`, the TGI in the test on U251 CNS, in the test with UACC-257 melanoma, in the test on NCI-H23 lung, in the test on UO-31 renal, in the test on SN12C renal and in the test on IGROV1 ovarian was greater than 100 µM throughout. Further, the TGI in the test on SR leukemia, with T-47D breast, in the test with MCF7 breast and in the test on SNB-19 CNS was greater than 100 µM each time.
Turning to `COC(=O)Cc1cc(O)c2c(c1O)C(=O)c1ccccc1C2=O`, the TGI in the test on U251 CNS was greater than 93.2 µM; in the test with UACC-257 melanoma, greater than 100 µM; in the test with NCI-H23 lung, greater than 100 µM; in the test on UO-31 renal, greater than 100 µM; in the test on SN12C renal, greater than 100 µM; in the test on IGROV1 ovarian, greater than 100 µM. Moreover, the TGI with SR leukemia was greater than 100 µM; in the test with T-47D breast it was greater than 100 µM; with MCF7 breast, greater than 56.3 µM; in the test on SNB-19 CNS it was greater than 85.5 µM.
As for `N#CN1C2CCC1CC(=O)C2`, the TGI in the test on U251 CNS, in the test on UACC-257 melanoma, in the test on NCI-H23 lung, in the test with UO-31 renal, in the test with SN12C renal and in the test with IGROV1 ovarian was greater than 100 µM throughout. Further, the TGI in the test with SR leukemia, with T-47D breast, with MCF7 breast and with SNB-19 CNS was greater than 100 µM each time.
`C[C@@H](NC(C#N)c1ccco1)c1ccccc1` (stereo not given in full): the TGI in the test with U251 CNS, with UACC-257 melanoma, in the test with NCI-H23 lung, with UO-31 renal, in the test with SN12C renal and with IGROV1 ovarian was greater than 100 µM throughout. Moreover, the TGI with SR leukemia, in the test with T-47D breast, in the test on MCF7 breast and with SNB-19 CNS was greater than 100 µM each time.
With `COc1ccc2c(c1)C(=O)CC1c3cnccc3C(=O)N21` (stereo not given), the TGI in the test with U251 CNS was greater than 100 µM; in the test on UACC-257 melanoma it was greater than 100 µM; in the test on NCI-H23 lung, greater than 100 µM; in the test on UO-31 renal, 99.5 µM; in the test with SN12C renal, greater than 100 µM; in the test on IGROV1 ovarian, greater than 100 µM. Moreover, the TGI with SR leukemia, in the test on T-47D breast, with MCF7 breast and with SNB-19 CNS was greater than 100 µM throughout.
Turning to `CC(C)=CCN1c2ccccc2NC(=O)CC1C` (stereo not given), the total growth inhibition concentration (TGI) in the test with U251 CNS is greater than 100 µM; with UACC-257 melanoma it was greater than 100 µM; with NCI-H23 lung, greater than 100 µM; with UO-31 renal, greater than 100 µM; with SN12C renal it was 81.2 µM; in the test with IGROV1 ovarian it was greater than 100 µM. Further, the TGI in the test on SR leukemia, in the test with T-47D breast, in the test with MCF7 breast and with SNB-19 CNS was greater than 100 µM in each case.
As for `CCC/C(Cl)=N\OC(=O)Nc1ccc(F)cc1`, the TGI in the test on U251 CNS was found to be 34.8 µM; with UACC-257 melanoma, 30.5 µM; with NCI-H23 lung, 41.2 µM; in the test with UO-31 renal, 31.5 µM; in the test with SN12C renal, 31 µM; in the test on IGROV1 ovarian, 33.3 µM. In addition, the TGI is 5.49 µM in the test on SR leukemia, 21.9 µM in the test with T-47D breast, greater than 55 µM in the test on MCF7 breast and 40.9 µM in the test with SNB-19 CNS.
Turning to `c1ccc(/C(=N/Nc2nc3ccccc3s2)C2CCCCC2)nc1`, the TGI with U251 CNS worked out at 35.9 µM; in the test on UACC-257 melanoma, 17.5 µM; in the test with NCI-H23 lung it was 21.8 µM; with UO-31 renal, 15.4 µM; in the test with SN12C renal, 22.7 µM; in the test with IGROV1 ovarian, 16.5 µM. The TGI with SR leukemia stood at 16.8 µM; with T-47D breast it was 15.5 µM; with MCF7 breast, 6.01 µM; with SNB-19 CNS, 30.6 µM.
For `CC(C)/C(Cl)=N/OC(=O)Nc1ccc(Br)cc1`, the TGI turned out to be 37.3 µM in the test on U251 CNS; 28.7 µM in the test on UACC-257 melanoma; 26.5 µM with NCI-H23 lung; 23.8 µM in the test on UO-31 renal; 4.62 µM in the test with SN12C renal; 27.1 µM in the test on IGROV1 ovarian. In addition, the TGI amounted to 4.5 µM in the test with SR leukemia, 9.95 µM with T-47D breast, 24.9 µM in the test with MCF7 breast and 44.1 µM with SNB-19 CNS.
For the compound `C=CCSC1=N/C(=C\c2ccc(Cl)cc2)C(=O)N1CC=C`, the concentration for total growth inhibition (TGI) is 64.6 µM in the test on U251 CNS; 76.7 µM in the test with UACC-257 melanoma; greater than 100 µM in the test with NCI-H23 lung; greater than 100 µM with UO-31 renal; 95.1 µM in the test on SN12C renal; greater than 100 µM in the test on IGROV1 ovarian. Moreover, the total growth inhibition concentration (TGI) in the test with SR leukemia was 48.4 µM; in the test with T-47D breast it was 63.5 µM; in the test with MCF7 breast, 46.2 µM; in the test on SNB-19 CNS, greater than 100 µM.
For `COc1cc(C2c3c(ccc4ccccc34)C(=O)C3CCC(=O)N32)cc(OC)c1OC` (stereo not given), the TGI with U251 CNS, with UACC-257 melanoma, in the test on NCI-H23 lung, in the test on UO-31 renal, in the test with SN12C renal and with IGROV1 ovarian was greater than 50 µM in each case. Further, the TGI in the test with SR leukemia, in the test on T-47D breast, with MCF7 breast and in the test on SNB-19 CNS was greater than 50 µM each time.
With `COC1CC(N)(c2ccccc2)C(O)C(C)O1` (stereo not given), the TGI in the test on U251 CNS, in the test with UACC-257 melanoma, with NCI-H23 lung, in the test with UO-31 renal, with SN12C renal and in the test on IGROV1 ovarian was greater than 100 µM throughout. The TGI in the test with SR leukemia, in the test on T-47D breast, in the test on MCF7 breast and with SNB-19 CNS was greater than 100 µM in each case.
